Publication PMC2811323 (The Journal of neuroscience : the official journal of the …, 2009)

Assays:
[1] = tested on: 15 other closely related GPCRs; assay: Millipore GPCR Profiler functional screen, GPCR panel; assay type: cell-based
hM1 receptor = assay: Millipore GPCR Profiler functional screen, hM1; assay type: cell-based, human; details: two-addition protocol, BQCA 12.5 μM in first addition
hM4 receptor = assay: Millipore GPCR Profiler functional screen, hM4; assay type: cell-based, human; details: two-addition protocol, BQCA 12.5 μM in first addition
[2] = tested on: rat mPFC layer V pyramidal cells; assay: Inward; assay type: cell-based
[3] = tested on: rat mPFC layer V pyramidal cells; assay: Spontaneous EPSCs in acute rat brain slices; assay type: cell-based
[4] = tested on: rat mPFC layer V pyramidal cells; assay type: cell-based; details: 10 μM; 1 μM TTX
[5] = tested on: mPFC layer V neurons, wildtype (WT) mice; assay: Spontaneous EPSCs in slices from wild-type mice; assay type: cell-based, mouse
[6] = 10 μM applied alone, −70 mV, 1 μM TTX

In the case of COc1ccc(Cn2cc(C(=O)[O-])c(=O)c3ccccc32)cc1.[Na+] [BQCA, Sodium 1-(4-methoxybenzyl)-4-oxo-1,4-dihydroquinoline-3-carboxylate], the “Agonist activity when applied alone in the first addition” value ([1]; 12.5 μM, any receptor tested) is reported as “no agonist activity”, the “Effect (PAM or antagonist activity) at the other GPCRs tested” value ([1]; two-addition protocol, BQCA 12.5 μM in first addition) is reported as “no effect” and the “Potentiation of the functional response” value (hM1 receptor) is reported as “robust potentiation”. For the same compound, the “Activity in the functional screen” value (hM4 receptor) was “no activity”.

With C[N+](C)(C)CCOC(N)=O [CCh, carbachol] the “Inward current (change in holding current)” value [2, 6] was 16.55 ± 1.93 pA, the “Inward current (change in holding current)” value ([2]; 100 μM applied alone, −70 mV, 1 μM TTX) was 53.14 ± 5.92 pA and the sEPSC amplitude ([3]; 10 μM applied alone) was 97.5 ± 4.4 % control. It also gave a sEPSC frequency ([3]; 10 μM applied alone) of 90.1 ± 12.4 % control, a sEPSC amplitude ([3]; 30 μM applied alone) of 108.3 ± 3.9 % control and a sEPSC frequency ([3]; 30 μM applied alone) of 455.0 ± 101.9 % control. For the same compound, the sEPSC amplitude ([3]; 100 μM applied alone) was 154.3 ± 46.2 % control, the sEPSC frequency ([3]; 100 μM applied alone) was 887.6 ± 268.5 % control and the mEPSC amplitude [4] was 88.6 ± 3.8 % control. For the same compound, the sEPSC amplitude ([5]; 3 μM applied alone) was 102.6 ± 11.7 % of control, the sEPSC frequency ([5]; 3 μM applied alone) was 83.2 ± 47.1% and the sEPSC amplitude ([5]; 30 μM applied alone) was 143.1 ± 22.0%. For the same compound, the sEPSC frequency ([5]; 30 μM applied alone) was 398.3 ± 56.2%.

With O=C(CCNS(=O)(=O)c1cccc2nsnc12)N1CCN(c2ccncc2)CC1 [VU0255035] the “Inward current (change in holding current)” value [2, 6] was “no effect”, the “Inward current (change in holding current)” value ([2]; 100 μM CCh in the presence of 10 μM VU0255035) was 11.78 ± 1.90 pA and the sEPSC amplitude ([3]; 5 μM antagonist with 30 μM CCh) was 87.1 ± 3.5 % control. It also gave a sEPSC frequency ([3]; 5 μM antagonist with 30 μM CCh) of 62.5 ± 10.1 % control, a sEPSC amplitude ([3]; 5 μM applied alone) of 92.9 ± 3.4 % control and a sEPSC frequency ([3]; 5 μM applied alone) of 114.1 ± 25.8 % control.
